Read-outs that look alike come from different tables or passages of the source.
How the values were obtained:
[1] = tested on: dicots (radishes); conditions: solution in water at 0.5% and 0.1%
Source text: (§1) Numerous natural compounds were screened for their ability to inhibit the germination of seeds. A single seed was placed in each well of a 96-well plate followed by a solution of each compound in water at both 0.5% and 0.1%. Germination was monitored at varying intervals, depending on the germination time in the control groups for the particular seed being used in the study.

[2] = tested on: monocots (wheat); conditions: solution in water at 0.5% and 0.1%
Source text: as §1

[3] = tested on: Poa annua (annual bluegrass); conditions: one week, relative to control
Experimental: (§2) To further test the inhibitory effect of formic acid on germinating seeds, pots with 6-cm diameter were filled with 60 mL of silty clay loam soil passed through a 2-mm sieve, and five (5) seeds of either Taraxacum officinale (dandelion, representing a broadleaved weed) or Poa annua (annual bluegrass, representing a grass weed) were planted on the top. A solid form of the composition containing corn gluten meal granules (1-2 mm diameter) soaked in 0%, 5%, 10% or 20% formic acid solution and dried were placed on the top of the soil at rates 0.1, 0.25, 0.5 and 1.0 g/pot. The pots were kept at optimum water content under growth lights with a 12-h light/dark period at room temperature, and the number of germinated seeds was counted after one week.

[4] = tested on: Taraxacum officinale (dandelion); conditions: one week, relative to control
Experimental: as §2

[5] = tested on: dicot seeds; conditions: charcoal saturated at 1 mL acid/1 g charcoal, applied to soil in flats; FIG. 2
Source text: (§3) Charcoal was applied to soil in flats containing a known number of seeds, either monocot or dicot, and germination was monitored in each of the treatment groups following intervals determined by the rate of germination in controls.

[6] = tested on: monocot seeds; conditions: charcoal saturated at 1 mL acid/1 g charcoal, applied to soil in flats; FIG. 1
Source text: as §3

[7] = tested on: Lactuca sativa (lettuce); conditions: for germination rate potting mix clay / germination rate soil (silty clay loam) clay / germination rate potting mix corn starch / germination rate soil (silty clay loam) corn starch / germination rate potting mix sand / germination rate soil (silty clay loam) sand: 7 days, relative to untreated control
Experimental: To test different carriers for formic acid, corn starch (powder), clay (granular, >2 mm diameter) and sand (small grain) were saturated with formic acid solutions (1, 3, and 5%) and dried at room temperature. Dry product (7.5 mL) was mixed with 60 mL of either potting mix or soil, and the mixture was placed in a small pot. Five (5) seeds of Lactuca sativa (lettuce) were planted on the top of each pot, and the seeds were covered with sand. The pots were incubated at room temperature under continuous light for 7 days, after which the number of seeds germinated in each pot was recorded and presented as a germination rate relative to the untreated control.

[8] = tested on: apple seedlings
Experimental: In order to estimate the length of time during which the presence of formic acid in the soil would have a negative effect on new, and perhaps desirable, plantings, a residue study was performed. Holes were cut into the bottoms of flats. The flats were then filled with soil and treated with charcoal immersed in either formic acid or water, just as described above. Soil was watered regularly in order to simulate natural growing conditions and soil leaching. Ten apple seedlings were planted in individual flats containing one treatment or the other at intervals of one week and survival was monitored for one week following each planting.

[9] = tested on: radish (Raphanus sativus); conditions: spray, 1, 3 and 5% in water with 0.04% Tween 20
Experimental: (§4) The herbicidal effect of formic acid was compared with that of acetic acid in a greenhouse study using radish (Raphanus sativus) and wheat (Triticum aestivum) as test plants. Both formic acid and acetic acid were diluted in water at 1, 3, and 5%, and deionized water was used as a control. Tween 20 was added to each of the solutions at a rate 0.04% for use as a surfactant. Solutions were applied to plants using a small handheld sprayer. Plants were evaluated at 24- and 72-hours after treatment for the % control.

[10] = tested on: wheat (Triticum aestivum); conditions: 5%, spray
Experimental: as §4

[11] = tested on: dicotyledonous radish plants (Raphanus sativas); conditions: foliar spray at all concentrations (1%, 3%, 5%); one day post-treatment
Source text: (§5) In order to determine whether formic acid could be used as a foliar herbicide it was applied as a foliar spray to the leaves of dicotyledonous radish plants (Raphanus sativas) and monocotyledonous wheat plants (Triticum aestivum). Solutions were applied to plants using a small handheld sprayer.
(§6) Formic acid and acetic acid solutions at three concentrations (1%, 3%, 5%) were applied and water was used as a check. A barrier was inserted between the rows of plants on either side of the row being treated to avoid drift of sprays into neighboring rows. Plants were evaluated at 24-hour and 72-hour intervals for the number of surviving plants and a percentage was derived from this number in comparison with the number of plants originally present in the row.

[12] = tested on: monocotyledonous wheat plants (Triticum aestivum); conditions: one day post-treatment
Source text: as §5, §6

[13] = 5% formic acid in corn gluten meal granules 1-2 mm, 0.1 g/pot
[14] = 5% formic acid in corn gluten meal granules 1-2 mm, 0.25 g/pot
[15] = 5% formic acid in corn gluten meal granules 1-2 mm, 0.5 g/pot
[16] = 5% formic acid in corn gluten meal granules 1-2 mm, 1 g/pot
[17] = 10% formic acid in corn gluten meal granules 1-2 mm, 0.1 g/pot
[18] = 10% formic acid in corn gluten meal granules 1-2 mm, 0.25 g/pot
[19] = 10% formic acid in corn gluten meal granules 1-2 mm, 0.5 g/pot
[20] = 10% formic acid in corn gluten meal granules 1-2 mm, 1 g/pot
[21] = 20% formic acid in corn gluten meal granules 1-2 mm, 0.1 g/pot
[22] = 20% formic acid in corn gluten meal granules 1-2 mm, 0.25 g/pot
[23] = 20% formic acid in corn gluten meal granules 1-2 mm, 0.5 g/pot
[24] = 20% formic acid in corn gluten meal granules 1-2 mm, 1 g/pot
[25] = 20% formic acid in corn gluten meal granules 1-2 mm, 1 g/pot, listed as formic acid

O=CO [Formic acid]
ability to inhibit germination of seeds [1]: inhibit germination of seeds
ability to inhibit germination of seeds [2]: inhibit germination of seeds
germination rate (%) annual bluegrass [3, 13]: 100%
germination rate (%) annual bluegrass [3, 14]: 82%
germination rate (%) annual bluegrass [3, 15]: 82%
germination rate (%) annual bluegrass [3, 16]: 82%
germination rate (%) annual bluegrass [3, 17]: 100%
germination rate (%) annual bluegrass [3, 18]: 100%
germination rate (%) annual bluegrass [3, 19]: 54%
germination rate (%) annual bluegrass [3, 20]: 54%
germination rate (%) annual bluegrass [3, 21]: 100%
germination rate (%) annual bluegrass [3, 22]: 54%
germination rate (%) annual bluegrass [3, 23]: 27%
germination rate (%) annual bluegrass [3, 24]: 0%
germination rate (%) annual bluegrass [3, 25]: inhibited the germination
germination rate (%) dandelion [4, 13]: 100%
germination rate (%) dandelion [4, 14]: 50%
germination rate (%) dandelion [4, 15]: 0%
germination rate (%) dandelion [4, 16]: 0%
germination rate (%) dandelion [4, 17]: 0%
germination rate (%) dandelion [4, 18]: 0%
germination rate (%) dandelion [4, 19]: 0%
germination rate (%) dandelion [4, 20]: 100%
germination rate (%) dandelion [4, 21]: 0%
germination rate (%) dandelion [4, 22]: 0%
germination rate (%) dandelion [4, 23]: 0%
germination rate (%) dandelion [4, 24]: 0%
germination rate (%) dandelion [4, 25]: inhibited the germination
effect on the germination of dicot seeds [5]: profound effect
effect on the germination of monocot seeds [6]: profound effect
germination rate potting mix clay ([7]; 1% formic acid on clay): 100
germination rate soil (silty clay loam) clay ([7]; 1% formic acid on clay): 100
germination rate potting mix corn starch ([7]; 1% formic acid on corn starch): 100
germination rate soil (silty clay loam) corn starch ([7]; 1% formic acid on corn starch): 100
germination rate potting mix sand ([7]; 1% formic acid on sand): 100
germination rate soil (silty clay loam) sand ([7]; 1% formic acid on sand): 100
germination rate potting mix clay ([7]; 3% formic acid on clay): 80
germination rate soil (silty clay loam) clay ([7]; 3% formic acid on clay): 100
germination rate potting mix corn starch ([7]; 3% formic acid on corn starch): 100
germination rate soil (silty clay loam) corn starch ([7]; 3% formic acid on corn starch): 75
germination rate potting mix sand ([7]; 3% formic acid on sand): 80
germination rate soil (silty clay loam) sand ([7]; 3% formic acid on sand): 100
control of germination of lettuce, comparison of tested products ([7]; 5% formic acid imbedded in clay granules): best control of germination
germination rate potting mix clay ([7]; 5% formic acid on clay): 60
germination rate soil (silty clay loam) clay ([7]; 5% formic acid on clay): 50
germination rate potting mix corn starch ([7]; 5% formic acid on corn starch): 100
germination rate soil (silty clay loam) corn starch ([7]; 5% formic acid on corn starch): 100
germination rate potting mix sand ([7]; 5% formic acid on sand): 20
germination rate soil (silty clay loam) sand ([7]; 5% formic acid on sand): 100
survival of planted seedlings ([8]; "By week 1, however, and in all subsequent weeks", identical to water group): 100%
residual herbicidal effect lasting ([8]; formic acid on charcoal in watered soil): less than one week
planted seedlings survived ([8]; week 1, flats treated with charcoal immersed in formic acid, water flats 100 percent): 80%
% control of radish plants ([9]; 24-h): 100%
% control of radish plants ([9]; 72-h): 100%
% control of wheat seedlings ([10]; 24-h): 1%
% control of wheat seedlings ([10]; 72-h): 4%
killing of foliage of radish plants [11]: completely killed all the foliage
wheat foliage killed ([12]; foliar spray 1%): none of the foliage killed
wheat plants killed ([12]; foliar spray 5%): 10%

Reference: patent US20070281857A1, “FORMIC ACID AS AN HERBICIDE” (MARRONE ORGANIC INNOVATIONS, priority 2006, published 2007)
